In patent publication US20190134039A1, “ANTIVIRAL JAK INHIBITORS USEFUL IN TREATING OR PREVENTING RETROVIRAL AND OTHER VIRAL INFECTIONS” (EMORY UNIVERSITY, priority 2011, published 2019):
Where two headings read alike, the source gives them in different places.

What was measured:
HIV-1LAI = test: microbe, parasite or virus in culture; conditions: Human immunodeficiency virus 1, PBMC, in Homo sapiens
Source text: PBM cells were isolated as follows: Lymphocytes were isolated from buffy coats derived from healthy donors obtained from Life South Laboratories (Dunwoody, Ga.). Activated lymphocytes were maintained for 72 hrs in medium that was supplemented with […] phytohemagglutinin (PHA) (Cape Cod associates, East Falmouth, Mass.). Media was comprised of RPMI media supplemented with 20% fetal calf serum, 1% penicillin/streptomyocin and 2% L-glutamine (Sigma Aldrich, San Jose, Calif.).
PBM cell infections: Testing was performed in duplicate with at least 3 independent assays. Cells were incubated in RPMI medium (HyClone, Logan, Utah) containing HR-IL2 (26.5 units/ml) and 20% fetal calf serum. Infections were performed by adding HIV-1LA1 followed by a further incubation at 37° C., 5% CO2, 1 hr prior to addition of drugs. Assays were performed in 24 well plates (BD Biosciences, Franklin Lakes, N.J.). One ml of supernatant was collected after 5 days in culture and then centrifuged at 12,000 rpm for 2 hr at 4° C. in a Jouan Br43i (Thermo Electron Corp., Marietta, Ohio). The product of the RT assay was quantified using a Packard harvester and direct beta counter and the data were analyzed as previously described (Schinazi et al, 1990).

PHA stimulated PBM cells = test: cells; conditions: Homo sapiens, PBMC, read-out: IC50 in PHA stimulated PBM cells *MTT Assay
Mφ = test: cells; conditions: Homo sapiens, read-out: IC50 in Mφ *MTT Assay
CEM cells = test: cells; conditions: Homo sapiens, CCRF-CEM, read-out: IC50 in CEM cells *MTT Assay
[1] = system: acute infection in rhesus macaque lymphocytes; test: cells; conditions: Macaca mulatta, Lymphocyte
Source text: (§1) The data (Shown in Table 5 below) are mean and standard deviations from at least three independent experiments.

[2] = system: acute infection in rhesus macaque macrophages; test: cells; conditions: for EC90: read-out: Acute infection in rhesus macaque macrophages EC90
Source text: as §1

HIV-1 containing M184V = test: microbe, parasite or virus in culture; type: cell-based
HIV-1 containing K65R = test: microbe, parasite or virus in culture; type: cell-based
HIV-1 containing L74V = test: microbe, parasite or virus in culture; type: cell-based
[3] = system: HIV-1 containing A62V/V75I/F77L/F116Y/Q151M; test: microbe, parasite or virus in culture; type: cell-based
[4] = system: HIV-1 containing 4xAZT (D67N/K70R/T215Y/K219Q); test: microbe, parasite or virus in culture; type: cell-based
latent HIV-1 [5] = test: Reactivation of latent HIV-1 in primary human macrophages (PMA, p24 ELISA); type: cell-based; conditions: drug applied during reactivation, removed thereafter, within 72 hr post reactivation
latent HIV-1 [6] = test: Reactivation of latent HIV-1, primary central memory-based T cell latency model; conditions: concentrations found during steady-state or Cmax in vivo
latent HIV-1 [7] = test: Reactivation of latent HIV-1, J-Lat latency T cell system; type: cell-based; conditions: concentrations found during steady-state or Cmax in vivo
activated PBM cells = type: cell-based, human
Source text: The data is shown in FIG. 2, in terms of total cell number (10^6 cells) versus aM drug in medium.
The data is shown in FIG. 3, in terms of cell viability (%) versus aM drug in medium.

[8] = system: PHA stimulated primary human lymphocytes; test: Proliferation and viability of PHA stimulated primary human lymphocytes; type: cell-based; conditions: 5 days, all concentrations
Protocol: The effect of various Jak inhibitors on proliferation and viability of PHA or PHA+IL-2 stimulated primary human lymphocytes was evaluated using the techniques described above.
For all experiments, cells were incubated with media alone or drug-containing medium for 5 days prior to assessment of cell count and viability. Data are mean and standard deviations for at least three independent experiments conducted with at least 4 pooled donors, and duplicates within each experiment.

PBM cells = test: cells; conditions: Homo sapiens, PBMC, read-out: IC50 in PBM cells *Propidium Iodide assay
pSTAT1 = test: cells
pSTAT3 = test: cells
pSTAT5 = test: cells
HIV-2 = test: microbe, parasite or virus in culture; conditions: Human immunodeficiency virus 2, PBMC
[9] = Human immunodeficiency virus 1, Lymphocyte

**Q.** Which EC50 (HIV-1LAI; read-out: Anti-HIV-1 EC50 in acutely infected PBM cells) does the source give for `N#CC[C@H](C1CCCC1)n1cc(-c2ncnc3[nH]ccc23)cn1` [Jakafi, Ruxolitinib] here?
**A.** 100 ± 20 nM

**Q.** And the EC90 (HIV-1LAI; read-out: Anti-HIV-1 EC90 in acutely infected PBM cells)?
**A.** 4700 ± 70 nM

**Q.** And the IC50 (PHA stimulated PBM cells)?
**A.** 9100 ± 1300 nM

**Q.** And the IC50 (Mφ)?
**A.** > 100000 nM

**Q.** What about the IC50 (CEM cells) of the same molecule?
**A.** 11800 ± 1100 nM

**Q.** And the EC50 ([1]; read-out: Acute infection in rhesus macaque lymphocytes EC50)?
**A.** 90 ± 100 nM

**Q.** And the EC90 ([1]; read-out: Acute infection in rhesus macaque lymphocytes EC90)?
**A.** 1300 ± 800 nM

**Q.** And the EC50 ([2]; Macaca mulatta, Macrophage, read-out: Acute infection in rhesus macaque macrophages EC50)?
**A.** ~400 nM

**Q.** And the EC90 ([2]; Macaca mulatta, Macrophage)?
**A.** ~4000 nM

**Q.** And the EC90 [2]?
**A.** 4200 ± 1300 nM

**Q.** What about the EC90 (HIV-1 containing M184V; [9]) of the same molecule?
**A.** 3200 ± 2300 nM

**Q.** What about the “FI50 (ratio of EC50 against mutant virus:EC50 against wild-type xxLAI)” value (HIV-1 containing M184V; M184V) of the same molecule?
**A.** 1.3

**Q.** What about the “FI90 (ratio of EC90 against mutant virus:EC90 against wild-type xxLAI)” value (HIV-1 containing M184V; M184V) of the same molecule?
**A.** 0.5

**Q.** And the EC50 (HIV-1 containing K65R; [9])?
**A.** 200 ± 300 nM

**Q.** What about the EC90 (HIV-1 containing K65R; [9]) of the same molecule?
**A.** 8500 ± 8100 nM

**Q.** What about the “FI50 (ratio of EC50 against mutant virus:EC50 against wild-type xxLAI)” value (HIV-1 containing K65R; K65R) of the same molecule?
**A.** 0.8

**Q.** And the “FI90 (ratio of EC90 against mutant virus:EC90 against wild-type xxLAI)” value (HIV-1 containing K65R; K65R)?
**A.** 1.4

**Q.** What about the EC50 (HIV-1 containing L74V; [9]) of the same molecule?
**A.** 100 ± 200 nM

**Q.** What about the EC90 (HIV-1 containing L74V; [9]) of the same molecule?
**A.** 3200 ± 2600 nM

**Q.** What about the “FI50 (ratio of EC50 against mutant virus:EC50 against wild-type xxLAI)” value (HIV-1 containing L74V; L74V) of the same molecule?
**A.** 0.5

**Q.** And the “FI90 (ratio of EC90 against mutant virus:EC90 against wild-type xxLAI)” value (HIV-1 containing L74V; L74V)?
**A.** 0.5

**Q.** What about the “FI50 (ratio of EC50 against mutant virus:EC50 against wild-type xxLAI)” value ([3]; A62V/V75I/F77L/F116Y/Q151M) of the same molecule?
**A.** 0.1

**Q.** What about the “FI90 (ratio of EC90 against mutant virus:EC90 against wild-type xxLAI)” value ([3]; A62V/V75I/F77L/F116Y/Q151M) of the same molecule?
**A.** 0.3

**Q.** What about the EC50 [3, 9] of the same molecule?
**A.** 30 ± 20 nM

**Q.** What about the EC90 [3, 9] of the same molecule?
**A.** 1500 ± 1500 nM

**Q.** And the “FI50 (ratio of EC50 against mutant virus:EC50 against wild-type xxLAI)” value ([4]; 4xAZT (D67N/K70R/T215Y/K219Q))?
**A.** 0.3

**Q.** And the “FI90 (ratio of EC90 against mutant virus:EC90 against wild-type xxLAI)” value ([4]; 4xAZT (D67N/K70R/T215Y/K219Q))?
**A.** 0.4

**Q.** And the EC50 [4, 9]?
**A.** 90 ± 100 nM

**Q.** What about the EC90 [4, 9] of the same molecule?
**A.** 2400 ± 2000 nM

**Q.** What about the “percent inhibition of reactivation of latent HIV-1 versus no drug control” value (latent HIV-1 [5]) of the same molecule?
**A.** ~35%

**Q.** And the “inhibition of reactivation of latent HIV-1” value (latent HIV-1 [6])?
**A.** ≥ 50%

**Q.** What about the “inhibition of reactivation of latent HIV-1” value (latent HIV-1 [7]) of the same molecule?
**A.** ≥ 50%

**Q.** And the “total cell proliferation (total cell number)” value (activated PBM cells)?
**A.** do not affect total cell proliferation

**Q.** And the total cell viability (activated PBM cells)?
**A.** do not affect total cell viability

**Q.** What about the “proliferation versus cells exposed to media alone” value [8] of the same molecule?
**A.** not significantly different

**Q.** What about the “viability versus cells exposed to media alone” value [8] of the same molecule?
**A.** not significantly different

**Q.** What about the IC50 (PBM cells) of the same molecule?
**A.** > 50000 nM

**Q.** What about the EC50 (pSTAT1; read-out: EC50 pSTAT1) of the same molecule?
**A.** < 10 nM

**Q.** What about the EC90 (pSTAT1; read-out: EC90 pSTAT1) of the same molecule?
**A.** < 10 nM

**Q.** And the EC50 (pSTAT3; read-out: EC50 pSTAT3)?
**A.** < 10 nM

**Q.** What about the EC90 (pSTAT3; read-out: EC90 pSTAT3) of the same molecule?
**A.** 10 nM

**Q.** What about the EC50 (pSTAT5; read-out: EC50 pSTAT5) of the same molecule?
**A.** < 10 nM

**Q.** And the EC90 (pSTAT5; read-out: EC90 pSTAT5)?
**A.** < 10 nM

**Q.** What about the EC50 (HIV-2; read-out: Anti-HIV-2 EC50 in acutely infected PBM cells) of the same molecule?
**A.** 20 ± 10 nM

**Q.** What about the EC90 (HIV-2; read-out: Anti-HIV-2 EC90 in acutely infected PBM cells) of the same molecule?
**A.** 400 ± 200 nM
